# Data: patent publication US20250027041A1, “COMPOSITION FOR INDUCING TRANSDIFFERENTIATION AND STEM CELLS TREATED THEREWITH” (YJ CERAPEUTICS INC., priority 2021, published 2025)
# Key:
# UCB-MSC (Promo Cell) = assay: Tuj1 immunochemical assay, UCB-MSC (Promo Cell); assay type: cell-based, human; settings: 10, 20 or 30 μM, 5 days
# Experimental: To determine whether transdifferentiation into ciNSC5, neural progenitor cells, occurred similarly even in MSCs of different origins when human UCB-MSCs were treated with YJ101, YJ102, or YJ103 for 5 days, the expression of neuronal markers in differentiated ciNSC5 was confirmed by immunochemical assay using MSCs from human adipose-derived mesenchymal stem cells (AD-MSCs), human bone marrow-derived mesenchymal stem cells ([…]) and human umbilical cord blood-derived mesenchymal stem cells (UCB-MSCs; Promo Cells). Specifically, AD-MSC (StemPro™ Human Adipose-Derived Stem Cell, Gibco, Passage #6) was incubated in a MesenPRO RS™ medium, BM-MSC (ATCC, Passage #6) was incubated in a Mesenchymal Stem Cell Basal Medium for Adipose, Umbilical and Bone Marrow-derived MSC (Cat. PCS-500-030, ATCC) medium, and UCB-MSC (Promo Cell, Passage #6) was incubated in a CellCor™ CD MSC (Cat. YSP001, Xell Therapeutics) medium, and then dispensed at 2.1×10^4 cells/well in a 12-well plate with an 18 mm cover glass (circular) (DMSO control group was dispensed at 3.5×10^3 cells/well). […] The culture medium was removed, washed with PBS, and then fixed with 4% paraformaldehyde at room temperature for 10 minutes. After washed three times with PBS, the cells were permeabilized with PBS-T containing 0.5% Triton X-100 for 10 minutes, washed with PBS-T three times for 10 minutes each, and then blocked with a blocking solution (PBS-T containing 5% BSA and 5% goat serum) for 1 hour. Thereafter, the cells were treated with anti-Tuj1 antibody (Cat. 801201, BioLegend) diluted 1/5000 in a blocking solution and incubated at 4° C. overnight. The next day, the cells were washed 10 times for 10 minutes each with PBS-T, and then treated with anti-mouse IgG-cy3 diluted 1/2000 in a blocking solution, and incubated for 1 hour in dark conditions. Next, the cells were washed 10 times for 10 minutes each with PBS-T, mounted with a mounting solution containing DAPI, and then observed with a confocal microscope.
# CtBP1-CtBP2 = target: T1, CtBP1-CtBP2 (Homo sapiens, UniProt P56545+Q13363); assay: Immunoprecipitation, CtBP1-CtBP2 heteromerization in UCB-MSCs; assay type: cell-based; settings: YJ102 20 μM; FLAG-CtBP2 + HA-CtBP1
# T1 construct: expressed in transfected cells; host or cells: human UCB-MSC
# Experimental: To determine the effect of YJ102 on the regulation of oligomerization of C-terminal Binding Proteins (CtBPs) in human UCB-MSCs, immunoprecipitation analysis was performed. Specifically, UCB-MSCs were dispensed at 4×10^5 cells/ml in a 60 mm culture dish, and the next day, FLAG-CtBP1, HA-CtBP1, FLAG-CtBP2, and HA-CtBP1 were transfected into cells using 4 μl jetPRIME. Thereafter, the cells were treated with YJ102 (stock 30 mM in DMSO) and MTOB (stock 300 mM in DMSO) at 20 μM and 300 μM, respectively (Table 1). After 48 hours of transfection, proteins were extracted in the same manner as in Example 1-1. Protein G agarose slurry was washed with PBS and blocked with 1 ml of 1% BSA, washed with PBS, and added with 1 μg of anti-HA antibody diluted with 1.5 ml of PBS and incubated at 4° C. for 2 hours. Thereafter, the cells were centrifuged at 3,000×g for 2 minutes to remove the supernatant, washed with an IP150 buffer two times, added with 1 μg of the protein extracted above, and incubated at 4° C. overnight. After incubation, the cells were centrifuged at 3,000×g for 2 minutes to remove the supernatant, washed with PBS three times, added with 50 μl of 1 mg/ml HA peptide diluted with PBS, and incubated at room temperature for 10 minutes. […]
# [1] = system: HES1, Sox2 and OCT4 gene promoters (CtBP1, CtBP1-LSD1 complex); assay: ChIP assay, target genes of CtBP1-YJ102; assay type: cell-based, human; settings: YJ102, 2 days, UCB-MSC
# Experimental: To identify a target gene of CtBP1-YJ102 in human UCB-MSC, chromatin immunoprecipitation (ChIP) assay was performed. Specifically, 2×10^6 human UCB-MSCs were dispensed into a 100 mm culture dish, treated with 10 μl of YJ102 (30 mM) or DMSO (control) the next day, and incubated for 2 days. For cross-linking and DNA sharing, the cells were added with formaldehyde to be 1% to the culture dish in which UCB-MSCs were incubated and incubated at 37° C. for 10 minutes to be fixed. The culture medium was removed and washed twice with PBS containing a protease inhibitor to collect the cells. The cells were centrifuged at 3000 rpm at 4° C. for 5 minutes to remove the supernatant, and the cells were added with an SDS lysis buffer containing a protease inhibitor, incubated on ice for 10 minutes, and lysed by ultrasound. The cells were centrifuged at 13,000 rpm at 4° C. for 10 minutes, the supernatant was transferred to a new microcentrifuge tube, and added with 1/10 volume of ChIP Dilution Buffer. Thereafter, DNA was purified and subjected to agarose gel electrophoresis to confirm that the DNA was shared at 200 to 1000 bp. In addition, for chromatin immunoprecipitation, the Protein G agarose slurry was washed with PBS, blocked with 1 ml of 1% BSA, and then washed with PBS, added with a cell lysate lysed by ultrasound and primary antibodies included anti-CtBP1 antibody (Cat. 07-306, Millipore), anti-LSD1 antibody (Cat. A1156, Abclonal), and Normal rabbit IgG (Cat. 12-370, Merck Millipore) (control group) at 1 μg each, and then incubated using a rotator overnight at 4° C. The next day, the supernatant was removed by centrifugation, and DNA-antibody-agarose beads were washed once with Low Salt Immune Complex Wash Buffer; High Salt Immune Complex Wash Buffer; and LiCl Immune Complex Wash Buffer in sequence, and then washed twice with 1×TE. The DNA-antibody-agarose beads were added with 250 μl of elution buffer (1% SDS, 0.1M NaHCO3), incubated at room temperature for 15 minutes using a rotator, and centrifuged, and the supernatant was transferred to a new microcentrifuge tube. The elution process was repeated one more time and the eluate was mixed. The eluate was added with 20 μl of 5 M NaCl, heated at 65° C. for 4 hours, and then added with 10 μl of 0.5 M EDTA, 20 μl of 1 M Tris-HCl (pH 6.5), and 2 μl of proteinase K (10 mg/ml) and incubated at 45° C. for 1 hour. Phenol/chloroform extraction and ethanol precipitation were performed, the DNA pellet was resuspended in DW, and then real-time quantitative PCR was performed using primers shown in Table 2 below.
smiles,measurement,setting,value
CCc1ccc(N(C(=O)COC)c2nc3cc(Cl)ccc3o2)cc1 [YJ102],expression of Tuj1,UCB-MSC (Promo Cell),increased
same,CtBP1-CtBP2 heteromerization,CtBP1-CtBP2,had no effect
same,CtBP1-LSD1 complex binding to Sox2 gene promoter,[1],bound to a Sox2 gene promoter
same,CtBP1 binding to HES1 gene promoter,[1],increased
same,HES1 expression,[1],decrease HES1 expression
same,OCT4 expression,[1],induce the expression of OCT4
same,Sox2 expression,[1],increase Sox2 expression
same,amount of CtBP1-LSD1 complex binding to OCT4 gene promoter,[1],increased
